# Laboratory results published in patent publication US20100279941A1, “CD36 MODULATION AND USES THEREOF” (priority 2009, published 2010).
# Numbered stars: 1 amine (or outer) side, 2 acyl side, 3 side chain; on linkers, the order of the positions; unused ones are H or OH. Square brackets hold non-standard residues; d marks the D form. Peptide text beside a SMILES is read from it. azaPhe = O=C(N(Cc1ccccc1)N[*:1])[*:2]; azaPro = O=C(N1CCCN1[*:1])[*:2]
# What was measured:
# Type in all cases: in vivo
# [1] = tested on: CD36^+/+ and CD36^−/− mice; test: Area at risk and infarct size after 30-min LCAL and 48 hours reperfusion (Evans blue/TTC)
# Excerpt: Animals. CD36^−/− mice were generated by targeted homologous recombination and backcrossed six times to C57BI/6. Wild-type control littermates (CD36^+/+) were bred from the same cross and were therefore of identical genetic background [Febbraio et al., 2000]. Male mice, aged 23 (±1) weeks, were used for experiments. They were fed standard chow (#5075, Charles Rivers, Saint-Constant, Québec, Canada) and water ad libitum, and housed singly during treatment periods (2 or 10 weeks). Daily pharmacological treatments with 300 μg/kg of EP 80317 or CP1A(IV) or vehicle (0.9% NaCl) were done by subcutaneous (s.c.) injections.
# (§1) C57BU6 mice were bred in house. Male mice, aged 23 (±1) weeks, were used for experiments. They were fed standard chow (#5075, Charles Rivers, Saint-Constant, Québec, Canada) and water ad libitum, and housed singly during treatment periods (2 weeks). Daily pharmacological treatments with 300 μg/kg (289 nmol/kg) of EP 80317 or 289 nmol/kg of CP-3(IV), 289 nmol/kg of CP-AP-4 or vehicle (0.9% NaCl) were done by subcutaneous (s.c.) injections.
# (§2) Experimental model of IHD: Transient left coronary artery ligation in vivo. Mice were subjected to a transient LCAL surgery as described before, with minor modifications [Tarnayski et al., 2004]. Mice were injected i.p. with buprenorphine (0.05 mg/kg) and placed in an induction chamber with inhalation anesthesia comprised of 3% isoflurane mixed with 100% oxygen. Mice were intubated with a blunt ended 20-gauge catheter into the trachea via the mouth and mechanically ventilated at a tidal volume of 7 ml/kg at 130 respirations/min with a MiniVent™ mouse ventilator (model 845, Harvard Apparatus, Saint-Laurent, QC, Canada). Anesthesia was maintained with 1.5-2% isoflurane and the animals were kept warm using electrical heating pads during the surgical procedure. The chest was opened by a horizontal incision through the skin and muscle layers at the third intercostal space exposing the left side of the heart. […] Visual blanching distal to the coronary occlusion confirmed myocardial ischaemia. Lidocaine (6 mg/kg) was administered i.p. just following occlusion and prior to reperfusion. After 30 minutes, the PE10 tubing was removed allowing reperfusion. The lungs were reinflated and the chest wound closed layer by layer before extubation. At 6 hours following reperfusion, mice were anesthetized (isoflurane), a blood sample withdrawn, and the heart arrested in diastole by an intravenous injection of 1 M KCl (0.5 mL). Hearts were immediately frozen at −80° C. unless otherwise stated.
# Evaluation of area at risk and infarct size. Two days after reperfusion, the left anterior descending (LAD) coronary artery was re-occluded at the original site and the abdominal aorta was injected retrogradly with 5% Evans blue dye to delineate the AAR by the absence of dark blue staining. The left ventricle, including the interventricular septum, was dissected and cut into transverse 1-mm slices from the apex to the base, using an acrylic matrix (Alto Inc., Hatfield, Pa., USA). The slices were incubated in 1% triphenyltetrazolium chloride solution at 37° C. for 15 min and placed in 10% neutral buffered formalin for 12 hours. Each slice was weighed and photographed on both sides with a digital camera (Nikon, Coolpix™ 4500, Mississauga, Ontario, Canada). The total LV area, AAR and IA were determined for each side of a slice by planimetric analysis using Adobe CS3 Photoshop™ software (Ottawa, ON, Canada), and averaged. The infarct weight was determined as follows: [(A1×WT1)+(A2×WT2)+(A3×WT3)+(A4×WT4) . . . ] where A and WT are the infarct area and weight of the section, respectively. The AAR weight was calculated in a similar manner, but by subtracting the blue (viable) stained zone from the weight. The results are expressed in terms of % IA/AAR, IA/LV and AAR/LV.
# [2] = tested on: C57BL/6 mice; test: Blood lactate after transient ischemia; settings: 6-hour reperfusion; 2 weeks 289 nmol/kg; P<0.05 compared to vehicle
# Protocol: as §1, §2
# Blood lactate. Blood lactate was determined using the Lactate Pro Analyser (FaCT Canada Consulting Ltd, Quesnel, BC, Canada), according to the manufacturer's instructions.
# [3] = tested on: C57BL/6 mice; test: Cardiac troponin I (cTnI) in plasma, ELISA; settings: 48 hours post-ischemia; 2 weeks 289 nmol/kg; compared to vehicle
# Protocol: as §1
# as §2, with “At 6 hours following reperfusion, mice were anesthetized (isoflurane), a blood sample withdrawn, and the heart arrested in diastole by an intravenous injection of 1 M KCl (0.5 mL).” left out
# Cardiac troponin I (cTnI) concentrations in plasma. cTnI plasma levels were assayed using the High Sensitivity Mouse Cardiac Troponin-I ELISA Kit (Life Diagnostics, Inc., West Chester, Pa., Cat. No. 2010-1-HSP), according to the manufacturer's instructions.
compound,measurement,setting,value
"C[C@H](N)C(=O)NN(Cc1ccccc1)C(=O)N[C@@H](C)C(=O)N[C@@H](Cc1c[nH]c2ccccc12)C(=O)N[C@H](Cc1ccccc1)C(=O)N[C@@H](CCCCN)C(N)=O [CP1A(IV), Ala-AzaPhe-Ala-Trp-DPhe-Lys-NH2] (H-A[azaPhe]AW[dF]K-NH2)",reduction of infarct area,"[1]; 2-week pretreatment, same drug regimen (300 μg/kg/d), CD36^+/+ mice, 48 hours reperfusion",49%
"C[C@H](N)C(=O)N[C@H](Cc1c[nH]c2ccccc12)C(=O)N[C@@H](C)C(=O)NN(Cc1ccccc1)C(=O)N[C@H](Cc1ccccc1)C(=O)N[C@@H](CCCCN)C(N)=O [CP-3(iv), Ala-D-Trp-Ala-AzaPhe-DPhe-Lys-NH2] (H-A[dW]A[azaPhe][dF]K-NH2)",reduction of lactate concentration in blood,[2],27%
same,area-at-risk,"[1]; mouse, in vivo",52 (±3) %
same,reduction of IA/LV ratios,"[1]; mouse, in vivo",56%
same,reduction of cardiac troponin I (cTnI) levels in plasma,[3],42%
"NCCCC[C@H](NC(=O)[C@@H](Cc1ccccc1)NC(=O)[C@H](Cc1c[nH]c2ccccc12)NC(=O)N1CCCN1C(=O)[C@@H](Cc1c[nH]c2ccccc12)NC(=O)[C@@H](N)Cc1cnc[nH]1)C(N)=O [CP-AP-4, His-D-Trp-AzaPro-Trp-DPhe-Lys-NH2] (H-H[dW][azaPro]W[dF]K-NH2)",reduction of lactate concentration in blood,[2],32%
same,area-at-risk,"[1]; CD36^+/+ (C57BL/6) mice, 289 nmol/kg 2 weeks, 48 hours reperfusion, mean (±SE)",50 (±4) %
same,reduction of IA/LV ratios,"[1]; CD36^+/+ (C57BL/6) mice, 289 nmol/kg 2 weeks, 48 hours reperfusion, p<0.001 vs 0.9% NaCl",50%
same,reduction of cardiac troponin I (cTnI) levels in plasma,[3],54%
